Tested on: synthesis and secretion of a type IV collagen protein in vascular endothelial cells derived from iPS cells
Experiment: Amount of type IV collagen protein released into the medium by iPS-derived vascular endothelial cells (Western blotting)
Type: cell-based, human
Details: 10 nmol/L digoxin, serum-free medium, 3 days culture; FIG. 3
Procedure: As the cells, iPS cells derived from healthy adults and patients with scleroderma established at Kumamoto University were used (Zhongzhi Wang, et al., JDS 2016 November; 84(2): 186-196.). Scleroderma is known to cause Raynaud's syndrome, which is one of peripheral vascular disorders, as a symptom of scleroderma, and therefore was employed as a vascular disorder model cell.
Differentiation induction into vascular endothelial cells was performed by culturing iPS cells derived from healthy adults and patients with scleroderma under the conditions described in Table 1.
As the obtained cells, only cells positive for VE-cadherin (CD144) and PECAM-1 (CD31), which are vascular endothelial cell markers, were sorted using flow cytometry. From the morphology of the sorted cells and the expression of the marker genes, it was confirmed that the sorted cells were vascular endothelial cells. […]
In the above (1), using the cell supernatant cultured in the serum-free medium, the amount of a type IV collagen protein released into the medium was quantified by the following method.
First, proteins released into the medium were concentrated. […] After removal of ethanol, the precipitate was dried and dissolved in an RIPA buffer, and each sample was adjusted to have a protein concentration of 1 mg/ml using a protein quantification reagent (Bradford Protein Assay, manufactured by Bio-Rad Laboratories, Inc.). […]

C[C@H]1O[C@@H](O[C@H]2[C@@H](O)C[C@H](O[C@H]3[C@@H](O)C[C@H](O[C@H]4CC[C@@]5(C)[C@H](CC[C@@H]6[C@@H]5C[C@@H](O)[C@]5(C)[C@@H](C7=CC(=O)OC7)CC[C@]65O)C4)O[C@@H]3C)O[C@@H]2C)C[C@H](O)[C@@H]1O [digoxin]
amount of a type IV collagen protein in the medium: hardly reduced

— patent publication US12564576B2, “Therapeutic agent for vascular disorder” (NATIONAL UNIVERSITY CORPORATION KUMAMOTO UNIVERSITY, priority 2020, dated 2026)
